In patent US20240059740A1, “CYCLIC PEPTIDES AND USES THEREOF” (PRE[…] INC., priority 2020, published 2024):
Residues, ends and D or L forms follow the SMILES beside them.

Key:
Type in all cases: cell-based, human
MMP-2 mRNA = test: Real time RT-PCR, MMP-2 mRNA expression
From the text: The real-time reverse transcription polymerase chain reaction (RT-PCR) uses fluorescent reporter molecules to monitor the production of amplification products during each cycle of the PCR reaction. This combines the nucleic acid amplification and detection steps into one homogeneous assay and use of appropriate chemistries and data analysis eliminates the need for Southern blotting or DNA sequencing for amplicon identification. Its simplicity, specificity and sensitivity, together with its potential for high throughput and the ongoing introduction of new chemistries, more reliable instrumentation and improved protocols, has made real-time RT-PCR the benchmark technology for the detection and/or comparison of RNA levels.’
In order to detect and quantify the expression of specific genes at mRNA level, real-time reverse transcriptase polymerase chain reaction (Real time RT-PCR) was performed. Total RNA of samples was isolated and purified using the PureLink® RNA Mini Kit (Life technologies). The concentration of total RNA was detected by NanoDrop 2000 Spectrophotometer (Thermo Scientific). The total RNA (2000 ng) was reverse transcribed using the High-Capacity cDNA Reverse Transcription Kit (Applied Biosystems™).
The primers of target genes were TaqMan™ Gene Expression Assay for human PLAU (Hs01547054_m1), MMP-2 (Hs01548727_m1), MMP-9 (Hs00957562_m1), Snail-1 (Hs00195591_m1), Snail-2 (Hs00161904_m1), N-cadherin (Hs00983056_m1) and Twist (Hs01675818_s1). Relative quantification was done by reference to 18S ribosomal RNA (18S rRNA) and analysed using the comparative critical threshold (Ct) method
The mRNA expression of MMPs was measured using qRT-PCR. This was tested three independent times; the results are shown in Tables 9, 10 and 11 for U251, U87 cells and O81024 cells respectively. Results are reported as percent of the control cells (no treatment). Both MMP-2 and uPA were decreased in U251 by SEQ ID NO.1.

U87 cells = test: MTT assay for cytotoxicity, U87; settings: 48 hours, % viability of control
From the text: The MTT (3-[4.5-dimethylthiazol-2-yl]-2,5═diphenyl tetrazolium bromide) assay is based on a process undertaken by living cells, involving the conversion of MTT into formazan crystals. This assay is used routinely to measure the in vitro cytotoxic effects of drugs on cell lines or primary patient cells (Van Meerloo et al., 2011). The MTT assay measures mitochondrial activity, so in some instances where the peptide activates mitochondrial response, the results appear to increase the number of cells present i.e. >100% cell viability.
The aim of this experiment was to identify peptide concentrations that are active on living cells and cell viability was assessed.
The glioblastoma multiforme (GBM) cell lines used were U87 and U251 cells and patient derived cells grown as oncospheres (081024 cells). Human adherent GBM cell lines U87 and U251 were cultured in RPMI medium (Life Technologies Melbourne Australia) supplemented with 5% v/v FBS, 100 U/mL penicillin and 100 μg/mL streptomycin. 081024 cells were cultrured in NeuroCult™ NS-A Proliferation medium with 0.2% (v/v) heparin, 20 ng/mL EGF and 10 ng/mL FGF.
8×10^3 U87 and 7×10^3 U251 cells per well were seeded in 96 well plates in 200 μL serum-containing RPMI medium and incubated at 37° C. with 5% CO2 for 24 hours. After one wash with serum-free medium, 100 μL serum-free medium with different concentration of peptide SEQ ID NO:1 was added to each well. After 48 hours incubation, 10 μL of 0.5 mg/mL MTT was added and incubated for 2 hours at 37° C. Formazan crystals were dissolved by 200 μL/well dimethyl sulfoxide (DMSO) and shaking for 15 minutes. The UV absorbance was read with an iMark™ microplate absorbance reader at 595 nm (Bio-Rad Laboratories). Background absorbance was subtracted and results expressed as the % viability of control (untreated cells).

MMP-2 = test: Gelatin zymography of conditioned media, MMP-2 production; settings: for metalloprotease production, MMP-2: compared to control containing no peptide
From the text: To assess whether the peptide SEQ ID NO.1 impacted MMP-2, MMP-9 and uPA production Zymography was used.
Zymography is a technique for studying hydrolytic enzymes on the basis of substrate degradation. The in-gel zymography hydrolytic enzymes are separated by their molecular weights and detected by their ability to degrade a substrate. To detect the activity of MMP-2 and MMP-9 in various cell lines, conditioned media were collected in 3 independent experiments and analysed by gelatin zymography to quantify the level of gelatin digestion, which reflects MMP-2 and MMP-9 activity and production. Casein-Plasminogen zymography was conducted to determine the activity level of uPA in the conditioned medium from various cell lines. Active uPA converts plasminogen into plasmin which then digests casein, thus clear bands where digestion of casein have occurred indirectly represent uPA activity.
The effect of the peptides on matrix protease production was tested using in-gel zymography. If the substrate included in the gel is gelatin, the enzymes detected are gelatinases: MMP-2 and MMP-9 (the latter is often of low abundance). If the gel contains casein and plasminogen, the enzymes tested are urokinase plasminogen activators (uPA); uPA is a therapeutic target in GBM.
An equal amount of protein from each sample was mixed with 5 μL of Laemmli buffer (0.01% Bromophenol Blue (W/V), 5% SDS (W/V), 22% glycerol (V/V), 14% 0.5 M Tris pH 6.8 (V/V)) and loaded onto a 10% polyacrylamide gel co-polymerized with 1 mg/ml of gelatin, and electrophoresed at 120 V for 2 hours on ice. The gel was incubated in […] solution (Triton X-100 2.5% (V/V), 1 M Tris pH 7.5 5% (V/V), 0.5 M CaCl2 1% (W/V) at room temperature overnight on an orbital shaker. The gel was incubated in a second solution for 3 hours at 37° C. The gel was then stained with Coomassie blue solution (Coomassie blue 0.25%, methanol 45%, acetic acid 10%) and destained in methanol 25% (V/V), acetic acid 10% (V/V) destaining solution until clear bands against the dark background appeared around 72 kDa and 95 kDa, representing MMP-2 and MMP-9 activity, respectively. Clear bands around 50 kDa appeared against the dark background representing uPA activity. The gels were scanned, and uPA, MMP-2 and MMP-9 were quantified by densitometry using NIH Image J software.
SEQ ID NO.1 was compared to a control containing no peptide to evaluate whether the peptide can reduce the production of matrix proteinases. […] This could be confirmed using a MMP-9 quantification kit, and altered production by a transcriptional mechanism can be unveiled using qRT-PCR.

With `CC(C)C[C@@H]1NC(=O)[C@H](C)NC(=O)[C@@H](NC(=O)[C@@H]2CCCN2C(=O)[C@@H](N)CC(C)C)CSSC(C)(C)CNC(=O)CC[C@@H](C(=O)N[C@@H](CCCNC(=N)N)C(N)=O)NC(=O)[C@H](CC(=O)O)NC(=O)[C@H](CC(N)=O)NC1=O` [SEQ ID NO: 1, Leu-Pro-c(SSA*-Ala-Leu-Asn-Asp-Glu)-Arg-NH2] (HELM PEPTIDE1{L.P.C.A.L.N.D.E.R.[am]}|CHEM1{[CC(C)(CN[*:2])S[*:1]]}$PEPTIDE1,CHEM1,3:R3-1:R1|PEPTIDE1,CHEM1,8:R3-1:R2$$$V2.0; N-terminus assumed) the “mRNA expression, MMP-2” value (MMP-2 mRNA; 081024 cells, baseline expression level = 1) was 0.91, the “mRNA expression, MMP-2” value (MMP-2 mRNA; U87 cells, baseline expression level = 1) was 0.84 and the “mRNA expression, MMP-2” value (MMP-2 mRNA; U251 cells, relative to control (no treatment), listed as SEQ ID NO. 1) was 0.72. The “mRNA expression, MMP-2” value (MMP-2 mRNA; U251 cells, relative to control (no treatment), listed as SEQ ID NO.1) was “decreased”, the Cell viability (U87 cells; 1 μM) was 96.34% and the Cell viability (U87 cells; 5 μM) was 102.4%. It also gave a Cell viability (U87 cells; 10 μM) of 100.1%, a Cell viability (U87 cells; 50 μM) of 98.71% and a Cell viability (U87 cells; 100 μM) of 102.8%. The Cell viability (U87 cells; 500 μM) was 96.94%, the Cell viability (U87 cells; 1 mM) was 83.41% and the “metalloprotease production, MMP-2” value (MMP-2; 081024 cells) was 106.4. For the same molecule, the “metalloprotease production, MMP-2” value (MMP-2; U87 cells) was 102.1, the “metalloprotease production, MMP-2” value (MMP-2; U251 cells) was 110.2 and the “production of MMP-2 (overall, in words)” value (MMP-2; overall, all cell lines) was “did not decrease”.
